From US5922697A, “Compounds, compositions and methods for inhibiting the binding of proteins containing an SH2 domain to cognate phosphorylated proteins” (Warner-Lambert Company, priority 1998, dated 1999) come the findings set out here.

The target of experiment [1] is T1, Grb2 SH2-GST binding to PDGF receptor kinase domain (Homo sapiens, UniProt P62993).
T1 construct: S-X-SH2-GST (X=Src, Ab1, Grb2, p85-N, p85-C, Syp-N, and PLCy-C domains)
The experiment can be described thus: Inhibition of activated PDGF receptor binding to 35S-SH2 domains: Grb2 SH2-GST. The note with it: 35S-Grb2 SH2-GST, immobilized PDGF receptor kinase domain, pH 7.5, room temperature, 30 minutes.

In experiment [2] the target is T2, Abl SH2-GST binding to PDGF receptor kinase domain (Homo sapiens, UniProt P00519).
T2 construct: S-X-SH2-GST (X=Src, Ab1, Grb2, p85-N, p85-C, Syp-N, and PLCy-C domains)
T2 sequence (P00519 127-217 limits assumed): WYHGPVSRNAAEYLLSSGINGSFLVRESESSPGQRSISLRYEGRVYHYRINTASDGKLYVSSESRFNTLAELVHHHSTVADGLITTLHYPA
Put plainly: Inhibition of activated PDGF receptor binding to 35S-SH2 domains: Abl SH2-GST. The protocol:
Inhibition of Activated PDGF Receptor Binding to ^35 S-SH2 Domains
The assay was conducted at room temperature for 30 minutes while continuously inverting the plate. The resultant SH2-GST-PDGF receptor kinase complex was separated from excess ^35 S-SH2-GST protein by vacuum filtration and the amount of bound SH2-GST was determined by scintillation counting. Results are expressed as IC50 values and/or % inhibition at specified concentrations in Table 2 below.

The target of experiment [3] is T3, PLCγ(C) SH2-GST binding to PDGF receptor kinase domain (Homo sapiens, UniProt P19174).
T3 construct: S-X-SH2-GST (X=Src, Ab1, Grb2, p85-N, p85-C, Syp-N, and PLCy-C domains)
T3 sequence (P19174 668-756 limits assumed): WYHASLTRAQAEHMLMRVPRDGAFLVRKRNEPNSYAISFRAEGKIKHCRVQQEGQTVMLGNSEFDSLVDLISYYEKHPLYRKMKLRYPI
The experiment can be described thus: Inhibition of activated PDGF receptor binding to 35S-SH2 domains: PLCγ(C) SH2-GST. To be noted: 35S-PLCγ(C) SH2-GST, immobilized PDGF receptor kinase domain, pH 7.5, room temperature, 30 minutes.

Experiment [4] deals with T4, Syp(N) SH2-GST binding to PDGF receptor kinase domain (Homo sapiens, UniProt Q06124).
T4 construct: S-X-SH2-GST (X=Src, Ab1, Grb2, p85-N, p85-C, Syp-N, and PLCy-C domains)
T4 sequence (Q06124 6-102): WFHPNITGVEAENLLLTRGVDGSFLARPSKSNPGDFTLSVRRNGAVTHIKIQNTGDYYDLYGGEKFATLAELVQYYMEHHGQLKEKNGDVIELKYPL
The experiment can be described thus: Inhibition of activated PDGF receptor binding to 35S-SH2 domains: Syp(N) SH2-GST. The note with it: 35S-Syp(N) SH2-GST, immobilized PDGF receptor kinase domain, pH 7.5, room temperature, 30 minutes.

For experiment [5], the target named is T5, p85(C) SH2-GST binding to PDGF receptor kinase domain (Homo sapiens, UniProt P27986).
T5 construct: S-X-SH2-GST (X=Src, Ab1, Grb2, p85-N, p85-C, Syp-N, and PLCy-C domains)
T5 sequence (P27986 624-718 limits assumed): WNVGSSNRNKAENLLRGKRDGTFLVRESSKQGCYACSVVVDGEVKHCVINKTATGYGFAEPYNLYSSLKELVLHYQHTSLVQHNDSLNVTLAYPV
The experiment can be described thus: Inhibition of activated PDGF receptor binding to 35S-SH2 domains: p85(C) SH2-GST. To be noted: 35S-p85(C) SH2-GST, immobilized PDGF receptor kinase domain, pH 7.5, room temperature, 30 minutes.

Experiment [6] deals with T6, Abl SH2 (Homo sapiens, UniProt P00519).
T6 construct: glutathione-S-transferase(GST)-Abl SH2 fusion protein
T6 sequence (P00519 127-217 limits assumed): T2 sequence (P00519 127-217 limits assumed)
The experiment can be described thus: Inhibition of 125I-phosphopeptide binding to immobilized Abl SH2. The note with it: competitive 125I-phosphopeptide displacement, GST-Abl SH2 fusion protein, pH 7.5, room temperature, 20 minutes; read-out: IC50, Abl SH2 Binding. Here is the method: The binding affinities of compounds of the present invention to Abl SH2 was determined using a competitive radiolabeled phosphopeptide displacement assay. […] Binding was performed at room temperature for 20 minutes while continuously inverting the plate.

For experiment [7], the system named is Swiss 3T3 cells. The experiment can be described thus: Inhibition of DNA synthesis as monitored by 3H-thymidine uptake. Type of experiment: cell-based. To be noted: Swiss 3T3 cells stimulated with growth factor (PDGFbb or Fetal Bovine Serum), 24 hours; compound concentration not given. Here is the method:
Inhibition of DNA Synthesis as Monitored by ^3 H-Thymidine Uptake
DNA synthesis occurs when a cell is exposed to Platelet Derived Growth Factor (PDGF). For PDGF-induced DNA synthesis to occur, c-SRC or another member of the SRC gene family is required. The ability of the SRC SH2 inhibitors of the present invention to block PDGF-stimulated DNA synthesis can be assessed using the protocol set forth below.
Swiss 3T3 cells were grown in 12-well plates for 3 days to approximately 50% confluency. The growth media was removed and replaced with 1.0 mL/well of assay buffer (Dulbecco's Modified Eagle Medium containing 0.2% Bovine Serum Albumin), and incubated for 24 hours to arrest growth.
Test compounds (5 μL) were add at 100 times their final concentration. Methyl sulfoxide was used as a control and levels in all wells kept under 1.0% of DMSO. Cells were then stimulated with growth factor (PDGFbb or Fetal Bovine Serum), and allowed to incubate another 24 hours.
During the final 2 hours of treatment, 5 uL of 0.1 μCi/μL ^3 H-thymidine was added to each well (final=0.5 μCi/well)
After incubation the medium was removed by aspiration, and each well was washed twice with ice-cold phosphate buffered saline (0.5 mL/wash). 0.5 mL ice-cold 5% trichloroacetic acid was added to each well and incubated on ice for a minimum 10 minutes. The trichloroacetic acid solution was removed and each well was washed twice with 0.5 mL ice-cold trichloroacetic acid, and then once with ice-cold water (0.5 mL). 0.5 mL of 2% Sodium Dodecyl Sulfate was added to each well to solubilize the cells and allowed to incubate at room temperature for 10-15 minutes. The solubilized cells were transfered to 20 mL scintillation vials. Each well was washed with 0.5 mL of water and combined with the corresponding scintillation vial. 10 mL of Ready-Gel scintillation cocktail was added to each vial and the vials were then counted in a scintillation counter. Results are shown as percent of ^3 H-thymidine uptake relative to control in Table 4 below.

The target in experiment [8] is T7, Src SH2 (Homo sapiens, UniProt P12931).
T7 construct: glutathione-S-transferase(GST)-Src SH2 fusion protein
T7 sequence (P12931 151-248 limits assumed): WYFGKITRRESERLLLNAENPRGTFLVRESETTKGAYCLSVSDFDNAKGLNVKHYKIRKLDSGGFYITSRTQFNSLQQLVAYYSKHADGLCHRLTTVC
Put plainly: Inhibition of 125I-phosphopeptide binding to immobilized Src SH2. To be noted: competitive 125I-phosphopeptide displacement, GST-Src SH2 fusion protein, pH 7.5, room temperature, 20 minutes; read-out: IC50, SRC SH2 Binding. Here is the method: The binding affinities of compounds of the present invention to Src SH2 was determined using a competitive radiolabeled phosphopeptide displacement assay.
Binding was performed at room temperature for 20 minutes while continuously inverting the plate. […] Results are expressed as IC50 values in Table 1 below.

T1 sequence (P62993 60-152 limits assumed): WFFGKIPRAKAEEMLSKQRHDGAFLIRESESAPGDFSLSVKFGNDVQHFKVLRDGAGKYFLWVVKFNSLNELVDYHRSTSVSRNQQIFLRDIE

As to `CC(=O)N[C@@H](Cc1ccc(OP(=O)(O)O)cc1)C(=O)NC(C)c1ccc(OCC2CCCCC2)c(C(N)=O)c1` (mixture of isomers) [Example 51, Phosphoric acid mono-(4-{(S)-2-acetylamino-2-[(RS)-1-(3-carbamoyl-4-cyclohexylmethoxy-phenyl)-ethylcarbamoyl]-ethyl}-phenyl) ester], the IC50 (in general, the midpoint of a concentration-inhibition curve) in experiment [1] is roughly 100 µM; in experiment [2], 12.1 µM; in experiment [3], greater than 100 µM; in experiment [4], roughly 100 µM; in experiment [5] it was greater than 100 µM.
For the compound `CC[C@H](NC(=O)[C@H](Cc1ccc(C(F)(F)P(=O)(O)OCOC(=O)C(C)(C)C)cc1)NC(C)=O)C(=O)N(C)CCCC1CCCCC1` [Example 55, [S-(R*,R*)]-2,2-Dimethyl-propionic acid {[4-(2-acetylamino-2-{1-[(3-cyclohexyl-propyl)-methyl-carbamoyl]-propylcarbamoyl}-ethyl)-phenyl]-difluoro-methyl}-hydroxy-phosphinoyloxymethyl ester], the IC50 in experiment [6] and in experiment [8] was greater than 100 µM throughout. In experiment [7], the “3H-Thymidine Uptake, % Uptake Relative to Control” value is 61%.
